Measured values as given in patent publication US10738028B2, “Spiro three-membered ring, spiro five-membered ring peptide deformylase inhibitor and use thereof in antibacteria and anti-tumor” (priority 2016, dated 2020).

Key:
Assay type in all cases: cell-based
[1] = system: Enterococcus faecalis (EFA); experiment: MIC, two-fold agar dilution (CLSI), clinical isolates; conditions: for Anti-bacterial activity (MIC), strain EFA 15-1: clinical isolate EFA 15-1; for Anti-bacterial activity (MIC), strain EFA 15-2: clinical isolate EFA 15-2; for Anti-bacterial activity (MIC), strain EFA 15-3: clinical isolate EFA 15-3; for Anti-bacterial activity (MIC), strain EFA 15-4: clinical isolate EFA 15-4; for Anti-bacterial activity (MIC), strain EFA 15-5: clinical isolate EFA 15-5; for Anti-bacterial activity (MIC), strain EFA 15-6: clinical isolate EFA 15-6; for Anti-bacterial activity (MIC), strain EFA 15-9: clinical isolate EFA 15-9
How it was run: (§1)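 Following the American Clinical and Laboratory Standards Institute procedure, agar two-fold dilution served to determine minimum inhibitory concentrations.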

[2] = system: Enterococcus faecium (EFM); experiment: as above; conditions: for Anti-bacterial activity (MIC), strain EFM 15-1: clinical isolate EFM 15-1; for Anti-bacterial activity (MIC), strain EFM 15-2: clinical isolate EFM 15-2; for Anti-bacterial activity (MIC), strain EFM 15-3: clinical isolate EFM 15-3; for Anti-bacterial activity (MIC), strain EFM 15-4: clinical isolate EFM 15-4; for Anti-bacterial activity (MIC), strain EFM 15-5: clinical isolate EFM 15-5; for Anti-bacterial activity (MIC), strain EFM 15-6: clinical isolate EFM 15-6
How it was run: as §1

[3] = system: Escherichia coli (including ESBLs, non-ESBLs); experiment: as above; conditions: for Anti-bacterial activity (MIC), strain ECO+ 15-1: clinical isolate ECO+ 15-1; for Anti-bacterial activity (MIC), strain ECO+ 15-2: clinical isolate ECO+ 15-2; for Anti-bacterial activity (MIC), strain ECO+ 15-3: clinical isolate ECO+ 15-3; for Anti-bacterial activity (MIC), strain ECO+ 15-4: clinical isolate ECO+ 15-4; for Anti-bacterial activity (MIC), strain ECO− 15-1: clinical isolate ECO− 15-1; for Anti-bacterial activity (MIC), strain ECO− 15-2: clinical isolate ECO− 15-2; for Anti-bacterial activity (MIC), strain ECO− 15-3: clinical isolate ECO− 15-3; for Anti-bacterial activity (MIC), strain ECO− 15-4: clinical isolate ECO− 15-4
How it was run: as §1

[4] = system: Moraxella catarrhalis (BCA); experiment: as above; conditions: for Anti-bacterial activity (MIC), strain BCA 14-1: clinical isolate BCA 14-1; for Anti-bacterial activity (MIC), strain BCA 14-4: clinical isolate BCA 14-4; for Anti-bacterial activity (MIC), strain BCA 14-5: clinical isolate BCA 14-5; for Anti-bacterial activity (MIC), strain BCA 14-6: clinical isolate BCA 14-6; for Anti-bacterial activity (MIC), strain BCA 14-7: clinical isolate BCA 14-7; for Anti-bacterial activity (MIC), strain BCA 14-8: clinical isolate BCA 14-8; for Anti-bacterial activity (MIC), strain BCA 14-10: clinical isolate BCA 14-10
How it was run: as §1

[5] = system: Streptococcus pneoumoniae (SPN); experiment: as above; conditions: for Anti-bacterial activity (MIC), strain SPN 16-2: clinical isolate SPN 16-2; for Anti-bacterial activity (MIC), strain SPN 16-4: clinical isolate SPN 16-4
How it was run: as §1

[6] = system: methicillin-resistant Staphylococcus aureus (MRSA); experiment: as above; conditions: for Anti-bacterial activity (MIC), strain MRSA 15-1: clinical isolate MRSA 15-1; for Anti-bacterial activity (MIC), strain MRSA 15-2: clinical isolate MRSA 15-2; for Anti-bacterial activity (MIC), strain MRSA 15-3: clinical isolate MRSA 15-3; for Anti-bacterial activity (MIC), strain MRSA 15-4: clinical isolate MRSA 15-4
How it was run: as §1

[7] = system: methicillin-resistant Staphylococcus epidermidis (MRSE); experiment: as above; conditions: for Anti-bacterial activity (MIC), strain MRSE 15-1: clinical isolate MRSE 15-1; for Anti-bacterial activity (MIC), strain MRSE 15-2: clinical isolate MRSE 15-2; for Anti-bacterial activity (MIC), strain MRSE 15-3: clinical isolate MRSE 15-3; for Anti-bacterial activity (MIC), strain MRSE 15-7: clinical isolate MRSE 15-7
How it was run: as §1

[8] = system: methicillin-sensitive Staphylococcus aureus (MSSA); experiment: as above; conditions: for Anti-bacterial activity (MIC), strain MSSA 15-3: clinical isolate MSSA 15-3; for Anti-bacterial activity (MIC), strain MSSA 15-4: clinical isolate MSSA 15-4; for Anti-bacterial activity (MIC), strain MSSA 15-5: clinical isolate MSSA 15-5; for Anti-bacterial activity (MIC), strain MSSA 15-6: clinical isolate MSSA 15-6
How it was run: as §1

[9] = system: methicillin-sensitive Staphylococcus epidermidis (MSSE); experiment: as above; conditions: for Anti-bacterial activity (MIC), strain MSSE 15-3: clinical isolate MSSE 15-3; for Anti-bacterial activity (MIC), strain MSSE 15-4: clinical isolate MSSE 15-4; for Anti-bacterial activity (MIC), strain MSSE 15-5: clinical isolate MSSE 15-5; for Anti-bacterial activity (MIC), strain MSSE 15-6: clinical isolate MSSE 15-6
How it was run: as §1

[10] = system: HCT-116 colorectal cancer cell line; experiment: CCK-8 proliferation inhibition; conditions: Homo sapiens, HCT-116, 72 h, concentration of 30 μM; 72 hours; CCK-8; read-out: HCT116 inhibition rate/%
How it was run: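 Growth inhibition is read by CCK-8 (1:10 dilution) after 72 h of compound exposure. HCT-116 cells grow in McCoy's 5A containing 10% newborn bovine serum at 2000 cells/well, with 1‰ DMSO as vehicle control.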

CCCC[C@H](CC(=O)NO)C(=O)N1CC2(CC2)C[C@H]1C(=O)Nc1cnccn1 [Example 44]
Anti-bacterial activity (MIC), strain EFA 15-1 [1]: > 32 µg/mL | Anti-bacterial activity (MIC), strain EFA 15-2 [1]: > 32 µg/mL | Anti-bacterial activity (MIC), strain EFA 15-3 [1]: > 32 µg/mL | Anti-bacterial activity (MIC), strain EFA 15-4 [1]: > 32 µg/mL | Anti-bacterial activity (MIC), strain EFA 15-5 [1]: > 32 µg/mL | Anti-bacterial activity (MIC), strain EFA 15-6 [1]: > 32 µg/mL | Anti-bacterial activity (MIC), strain EFA 15-9 [1]: 32 µg/mL | Anti-bacterial activity (MIC), strain EFM 15-1 [2]: > 32 µg/mL | Anti-bacterial activity (MIC), strain EFM 15-2 [2]: > 32 µg/mL | Anti-bacterial activity (MIC), strain EFM 15-3 [2]: > 32 µg/mL | Anti-bacterial activity (MIC), strain EFM 15-4 [2]: > 32 µg/mL | Anti-bacterial activity (MIC), strain EFM 15-5 [2]: 1 µg/mL | Anti-bacterial activity (MIC), strain EFM 15-6 [2]: 2 µg/mL | Anti-bacterial activity (MIC), strain ECO+ 15-1 [3]: 32 µg/mL | Anti-bacterial activity (MIC), strain ECO+ 15-2 [3]: > 32 µg/mL | Anti-bacterial activity (MIC), strain ECO+ 15-3 [3]: > 32 µg/mL | Anti-bacterial activity (MIC), strain ECO+ 15-4 [3]: 1 µg/mL | Anti-bacterial activity (MIC), strain ECO− 15-1 [3]: 32 µg/mL | Anti-bacterial activity (MIC), strain ECO− 15-2 [3]: > 32 µg/mL | Anti-bacterial activity (MIC), strain ECO− 15-3 [3]: > 32 µg/mL | Anti-bacterial activity (MIC), strain ECO− 15-4 [3]: > 32 µg/mL | Anti-bacterial activity (MIC), strain BCA 14-1 [4]: 4 µg/mL | Anti-bacterial activity (MIC), strain BCA 14-4 [4]: 4 µg/mL | Anti-bacterial activity (MIC), strain BCA 14-5 [4]: 1 µg/mL | Anti-bacterial activity (MIC), strain BCA 14-6 [4]: 2 µg/mL | Anti-bacterial activity (MIC), strain BCA 14-7 [4]: 4 µg/mL | Anti-bacterial activity (MIC), strain BCA 14-8 [4]: 4 µg/mL | Anti-bacterial activity (MIC), strain BCA 14-10 [4]: 2 µg/mL | Anti-bacterial activity (MIC), strain SPN 16-2 [5]: 1 µg/mL | Anti-bacterial activity (MIC), strain SPN 16-4 [5]: 1 µg/mL | Anti-bacterial activity (MIC), strain MRSA 15-1 [6]: 0.5 µg/mL | Anti-bacterial activity (MIC), strain MRSA 15-2 [6]: 1 µg/mL | Anti-bacterial activity (MIC), strain MRSA 15-3 [6]: 1 µg/mL | Anti-bacterial activity (MIC), strain MRSA 15-4 [6]: 1 µg/mL | Anti-bacterial activity (MIC), strain MRSE 15-1 [7]: 1 µg/mL | Anti-bacterial activity (MIC), strain MRSE 15-2 [7]: 1 µg/mL | Anti-bacterial activity (MIC), strain MRSE 15-3 [7]: 1 µg/mL | Anti-bacterial activity (MIC), strain MRSE 15-7 [7]: 1 µg/mL | Anti-bacterial activity (MIC), strain MSSA 15-3 [8]: 0.5 µg/mL | Anti-bacterial activity (MIC), strain MSSA 15-4 [8]: 1 µg/mL | Anti-bacterial activity (MIC), strain MSSA 15-5 [8]: 1 µg/mL | Anti-bacterial activity (MIC), strain MSSA 15-6 [8]: > 32 µg/mL | Anti-bacterial activity (MIC), strain MSSE 15-3 [9]: 1 µg/mL | Anti-bacterial activity (MIC), strain MSSE 15-4 [9]: 1 µg/mL | Anti-bacterial activity (MIC), strain MSSE 15-5 [9]: 1 µg/mL | Anti-bacterial activity (MIC), strain MSSE 15-6 [9]: 1 µg/mL | inhibition at 30 µM [10]: 21%

CCCC[C@H](CC(=O)NO)C(=O)N1CC2(CC2)C[C@H]1C(=O)Nc1ccncn1 [Example 45]
Anti-bacterial activity (MIC), strain EFA 15-1 [1]: > 32 µg/mL | Anti-bacterial activity (MIC), strain EFA 15-2 [1]: > 32 µg/mL | Anti-bacterial activity (MIC), strain EFA 15-3 [1]: > 32 µg/mL | Anti-bacterial activity (MIC), strain EFA 15-4 [1]: > 32 µg/mL | Anti-bacterial activity (MIC), strain EFA 15-5 [1]: > 32 µg/mL | Anti-bacterial activity (MIC), strain EFA 15-6 [1]: > 32 µg/mL | Anti-bacterial activity (MIC), strain EFA 15-9 [1]: 16 µg/mL | Anti-bacterial activity (MIC), strain EFM 15-1 [2]: > 32 µg/mL | Anti-bacterial activity (MIC), strain EFM 15-2 [2]: > 32 µg/mL | Anti-bacterial activity (MIC), strain EFM 15-3 [2]: > 32 µg/mL | Anti-bacterial activity (MIC), strain EFM 15-4 [2]: > 32 µg/mL | Anti-bacterial activity (MIC), strain EFM 15-5 [2]: 0.5 µg/mL | Anti-bacterial activity (MIC), strain EFM 15-6 [2]: 0.5 µg/mL | Anti-bacterial activity (MIC), strain ECO+ 15-1 [3]: 32 µg/mL | Anti-bacterial activity (MIC), strain ECO+ 15-2 [3]: > 32 µg/mL | Anti-bacterial activity (MIC), strain ECO+ 15-3 [3]: > 32 µg/mL | Anti-bacterial activity (MIC), strain ECO+ 15-4 [3]: 1 µg/mL | Anti-bacterial activity (MIC), strain ECO− 15-1 [3]: 32 µg/mL | Anti-bacterial activity (MIC), strain ECO− 15-2 [3]: > 32 µg/mL | Anti-bacterial activity (MIC), strain ECO− 15-3 [3]: > 32 µg/mL | Anti-bacterial activity (MIC), strain ECO− 15-4 [3]: > 32 µg/mL | Anti-bacterial activity (MIC), strain BCA 14-1 [4]: 1 µg/mL | Anti-bacterial activity (MIC), strain BCA 14-4 [4]: 1 µg/mL | Anti-bacterial activity (MIC), strain BCA 14-5 [4]: 0.5 µg/mL | Anti-bacterial activity (MIC), strain BCA 14-6 [4]: 0.5 µg/mL | Anti-bacterial activity (MIC), strain BCA 14-7 [4]: 1 µg/mL | Anti-bacterial activity (MIC), strain BCA 14-8 [4]: 1 µg/mL | Anti-bacterial activity (MIC), strain BCA 14-10 [4]: 1 µg/mL | Anti-bacterial activity (MIC), strain SPN 16-2 [5]: 0.5 µg/mL | Anti-bacterial activity (MIC), strain SPN 16-4 [5]: 0.5 µg/mL | Anti-bacterial activity (MIC), strain MRSA 15-1 [6]: 0.5 µg/mL | Anti-bacterial activity (MIC), strain MRSA 15-2 [6]: 1 µg/mL | Anti-bacterial activity (MIC), strain MRSA 15-3 [6]: 1 µg/mL | Anti-bacterial activity (MIC), strain MRSA 15-4 [6]: 1 µg/mL | Anti-bacterial activity (MIC), strain MRSE 15-1 [7]: 1 µg/mL | Anti-bacterial activity (MIC), strain MRSE 15-2 [7]: 1 µg/mL | Anti-bacterial activity (MIC), strain MRSE 15-3 [7]: 1 µg/mL | Anti-bacterial activity (MIC), strain MRSE 15-7 [7]: 1 µg/mL | Anti-bacterial activity (MIC), strain MSSA 15-3 [8]: 0.5 µg/mL | Anti-bacterial activity (MIC), strain MSSA 15-4 [8]: 1 µg/mL | Anti-bacterial activity (MIC), strain MSSA 15-5 [8]: 1 µg/mL | Anti-bacterial activity (MIC), strain MSSA 15-6 [8]: > 32 µg/mL | Anti-bacterial activity (MIC), strain MSSE 15-3 [9]: 1 µg/mL | Anti-bacterial activity (MIC), strain MSSE 15-4 [9]: 1 µg/mL | Anti-bacterial activity (MIC), strain MSSE 15-5 [9]: 1 µg/mL | Anti-bacterial activity (MIC), strain MSSE 15-6 [9]: 1 µg/mL | inhibition at 30 µM [10]: 25%
